In ChEMBL document CHEMBL1201862, “PubChem BioAssay data set” (2004):
Active and inactive are the calls of the source.

Key:
[1] = viability of PTEN-deleted HCT116 cells – cell-based, HCT116 PTEN knockout, dose response (AID 1047); assay type: functional;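 note: HCT116 colon tumor cells with PTEN knocked out; cells exposed to compound for 60 hours before readout; potency for loss of cell viability measured by luminescence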
[2] = viability of HCT116 lacking mutant beta-catenin – cell-based, human colon tumor, dose response (AID 1045); assay type: functional;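 note: HCT116 colon tumor cells with beta catenin knocked out; cells exposed to compound for 60 hours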
Escherichia coli = test: microbe, parasite or virus in culture
HeLa = test: ATP-based viability loss in HeLa cells – cell-based, CellTiter-Glo luminescence, cherry-pick samples, cytotoxicity control for MITF activator project, dose response (AID 540259); assay type: functional; conditions: Homo sapiens
Vero [3] = test: cells; assay type: functional, cell-based; conditions: Chlorocebus sabaeus
[4] = viability of uninfected HEp-2 cells – cell-based, HTS, cytotoxicity control for RSV inhibitor project, dose response (AID 2410); assay type: functional; conditions: human respiratory syncytial virus
HEK293 [5] = test: EBV LMP1 TES2 canonical NF-kB signalling blockers – cell-based, HEK293, luciferase, cherry-pick, dose response (AID 588343); assay type: functional; conditions: Homo sapiens
Vero [6] = test: cells; assay type: functional; conditions: Chlorocebus sabaeus
Fatty acid synthase [7] = target: T1, Fatty acid synthase (Homo sapiens, UniProt P49327); test: inhibition of human FAS-TE enzyme activity – biochemical, endpoint fluorescence intensity, uHTS hits, dose response (AID 624327); assay type: functional;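 note: fluorescence from hydrolysis of an O-methyl fluorescein acyl ester substrate by the enzyme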
Fatty acid synthase [8] = target: T1, Fatty acid synthase; test: inhibition of human FAS-TE enzyme activity – biochemical, kinetic fluorescence intensity, dose response (AID 624326); assay type: functional;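 note: rate of fluorescence rise from hydrolysis of a fluorogenic O-methyl fluorescein ester substrate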
[9] = target: T2, Delta-type opioid receptor (Homo sapiens, UniProt P41143); test: HTS Image-Based Screen for Antagonists of the DOR Receptor. [Related pubchem assays (depositor defined):AID1777, AID1785, AID1786, AID2133]; assay type: functional
Mu-type opioid receptor = Mu-type opioid receptor (Homo sapiens, UniProt P35372); test: HTS Image-Based Screen for Agonists of the MOR Receptor. [Related pubchem assays (depositor defined):AID1777, AID1785, AID1786, AID2133]; assay type: functional;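 note: imaging of beta-arrestin GFP recruitment into spots after receptor activation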
[10] = target: T2, Delta-type opioid receptor; test: HTS Image-Based Screen for Agonists of the DOR Receptor. [Related pubchem assays (depositor defined):AID1777, AID1786, AID2133]; assay type: functional
[11] = microbe, parasite or virus in culture; assay type: functional; conditions: Mycobacterium tuberculosis
[12] = target: T3, Kappa-type opioid receptor (Homo sapiens, UniProt P41145); assay type: functional
Beta-galactosidase = Beta-galactosidase (Escherichia coli, UniProt Q8VNN2); assay type: functional
[13] = target: T3, Kappa-type opioid receptor; assay type: functional; remark: listed apart in the source
[14] = target: T4, Short transient receptor potential channel 4 (Mus musculus, UniProt Q9QUQ5); test: calcium entry via TRPC4 opening agents – cell-based, HEK293 TRPC4/mu-opioid, Fluo-4 calcium, dose response (AID 434937); assay type: functional
T4 sequence (Q9QUQ5 whole entry): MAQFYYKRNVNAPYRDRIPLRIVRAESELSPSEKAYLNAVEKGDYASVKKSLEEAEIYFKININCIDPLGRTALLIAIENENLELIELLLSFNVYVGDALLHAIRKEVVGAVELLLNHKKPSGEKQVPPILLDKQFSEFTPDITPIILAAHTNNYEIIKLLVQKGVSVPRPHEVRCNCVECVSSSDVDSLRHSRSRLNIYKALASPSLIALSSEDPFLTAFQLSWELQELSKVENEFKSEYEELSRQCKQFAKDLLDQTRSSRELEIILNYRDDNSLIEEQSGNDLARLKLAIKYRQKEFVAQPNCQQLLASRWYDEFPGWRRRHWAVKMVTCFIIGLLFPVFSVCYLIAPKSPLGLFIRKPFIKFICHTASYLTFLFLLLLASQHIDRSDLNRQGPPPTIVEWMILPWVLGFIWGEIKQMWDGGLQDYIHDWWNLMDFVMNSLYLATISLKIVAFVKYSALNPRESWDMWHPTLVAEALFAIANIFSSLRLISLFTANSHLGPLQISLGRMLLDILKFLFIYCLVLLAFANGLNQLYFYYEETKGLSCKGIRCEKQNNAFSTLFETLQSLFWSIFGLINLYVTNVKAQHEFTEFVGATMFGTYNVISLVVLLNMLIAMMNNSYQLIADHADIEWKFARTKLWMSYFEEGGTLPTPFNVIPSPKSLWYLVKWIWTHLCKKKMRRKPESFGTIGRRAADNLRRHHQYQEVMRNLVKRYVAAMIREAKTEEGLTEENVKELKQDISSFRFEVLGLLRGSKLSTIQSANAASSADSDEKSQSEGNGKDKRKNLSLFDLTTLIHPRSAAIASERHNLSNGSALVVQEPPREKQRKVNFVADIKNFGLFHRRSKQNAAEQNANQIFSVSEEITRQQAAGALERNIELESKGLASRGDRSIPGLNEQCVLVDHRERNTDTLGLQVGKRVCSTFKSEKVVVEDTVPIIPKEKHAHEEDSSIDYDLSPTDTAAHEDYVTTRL

[15] = reduction of Shn3 3'UTR-driven luciferase in osteoblasts – cell-based, Clone20 osteoblasts, firefly luciferase, cherry-picked, dose response (AID 624132); assay type: functional;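 note: firefly luciferase luminescence from reporter carrying the Shn3 3'UTR in osteoblasts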
[16] = loss of viability in HepG2 cells – cell-based, CellTiter-Glo, cherry-picked, cytotoxicity control for Shn3 inhibitor project, dose response (AID 624134); assay type: functional
[17] = target: T5, Histone-lysine N-methyltransferase NSD2 (Homo sapiens, UniProt O96028); assay type: biochemical
T5 sequence (O96028 whole entry): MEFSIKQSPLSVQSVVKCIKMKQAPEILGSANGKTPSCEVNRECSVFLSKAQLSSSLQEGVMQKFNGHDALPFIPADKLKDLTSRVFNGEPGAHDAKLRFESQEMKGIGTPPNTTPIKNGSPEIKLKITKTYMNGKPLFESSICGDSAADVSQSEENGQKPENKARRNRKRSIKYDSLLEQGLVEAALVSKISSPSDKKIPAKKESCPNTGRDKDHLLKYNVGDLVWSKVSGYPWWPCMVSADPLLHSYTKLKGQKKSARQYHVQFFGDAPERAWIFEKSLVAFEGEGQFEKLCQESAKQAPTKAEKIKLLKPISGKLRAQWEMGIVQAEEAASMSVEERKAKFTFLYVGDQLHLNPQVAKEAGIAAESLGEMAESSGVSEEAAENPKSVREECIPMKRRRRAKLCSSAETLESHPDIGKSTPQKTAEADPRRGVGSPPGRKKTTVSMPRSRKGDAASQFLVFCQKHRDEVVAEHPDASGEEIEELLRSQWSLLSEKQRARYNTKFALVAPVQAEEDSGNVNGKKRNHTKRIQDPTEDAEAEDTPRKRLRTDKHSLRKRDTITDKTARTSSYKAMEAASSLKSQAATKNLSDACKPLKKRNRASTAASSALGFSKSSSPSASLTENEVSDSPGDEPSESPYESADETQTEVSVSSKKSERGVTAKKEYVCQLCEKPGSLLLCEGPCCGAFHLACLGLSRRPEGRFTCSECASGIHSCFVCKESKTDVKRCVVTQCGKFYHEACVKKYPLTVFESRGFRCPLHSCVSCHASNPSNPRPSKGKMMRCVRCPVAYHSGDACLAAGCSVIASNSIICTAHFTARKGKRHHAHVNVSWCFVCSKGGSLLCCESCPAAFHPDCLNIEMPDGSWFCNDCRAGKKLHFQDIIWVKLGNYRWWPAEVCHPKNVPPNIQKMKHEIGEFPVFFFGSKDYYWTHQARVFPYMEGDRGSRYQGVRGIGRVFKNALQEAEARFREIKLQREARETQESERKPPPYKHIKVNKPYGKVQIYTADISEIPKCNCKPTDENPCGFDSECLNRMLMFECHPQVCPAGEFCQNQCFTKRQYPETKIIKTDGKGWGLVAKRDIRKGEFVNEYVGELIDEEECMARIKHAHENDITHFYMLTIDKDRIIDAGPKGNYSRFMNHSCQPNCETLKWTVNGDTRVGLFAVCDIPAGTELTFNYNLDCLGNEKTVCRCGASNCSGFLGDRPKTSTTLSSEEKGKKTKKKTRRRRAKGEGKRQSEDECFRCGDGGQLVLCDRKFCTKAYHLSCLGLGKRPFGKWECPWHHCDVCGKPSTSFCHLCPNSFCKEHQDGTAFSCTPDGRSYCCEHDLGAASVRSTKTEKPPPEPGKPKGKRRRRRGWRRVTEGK

HEK293 [18] = test: cells; conditions: Homo sapiens
HEK293 [19] = test: cells; conditions: Homo sapiens; remark: listed apart in the source

T1 sequence (P49327 whole entry): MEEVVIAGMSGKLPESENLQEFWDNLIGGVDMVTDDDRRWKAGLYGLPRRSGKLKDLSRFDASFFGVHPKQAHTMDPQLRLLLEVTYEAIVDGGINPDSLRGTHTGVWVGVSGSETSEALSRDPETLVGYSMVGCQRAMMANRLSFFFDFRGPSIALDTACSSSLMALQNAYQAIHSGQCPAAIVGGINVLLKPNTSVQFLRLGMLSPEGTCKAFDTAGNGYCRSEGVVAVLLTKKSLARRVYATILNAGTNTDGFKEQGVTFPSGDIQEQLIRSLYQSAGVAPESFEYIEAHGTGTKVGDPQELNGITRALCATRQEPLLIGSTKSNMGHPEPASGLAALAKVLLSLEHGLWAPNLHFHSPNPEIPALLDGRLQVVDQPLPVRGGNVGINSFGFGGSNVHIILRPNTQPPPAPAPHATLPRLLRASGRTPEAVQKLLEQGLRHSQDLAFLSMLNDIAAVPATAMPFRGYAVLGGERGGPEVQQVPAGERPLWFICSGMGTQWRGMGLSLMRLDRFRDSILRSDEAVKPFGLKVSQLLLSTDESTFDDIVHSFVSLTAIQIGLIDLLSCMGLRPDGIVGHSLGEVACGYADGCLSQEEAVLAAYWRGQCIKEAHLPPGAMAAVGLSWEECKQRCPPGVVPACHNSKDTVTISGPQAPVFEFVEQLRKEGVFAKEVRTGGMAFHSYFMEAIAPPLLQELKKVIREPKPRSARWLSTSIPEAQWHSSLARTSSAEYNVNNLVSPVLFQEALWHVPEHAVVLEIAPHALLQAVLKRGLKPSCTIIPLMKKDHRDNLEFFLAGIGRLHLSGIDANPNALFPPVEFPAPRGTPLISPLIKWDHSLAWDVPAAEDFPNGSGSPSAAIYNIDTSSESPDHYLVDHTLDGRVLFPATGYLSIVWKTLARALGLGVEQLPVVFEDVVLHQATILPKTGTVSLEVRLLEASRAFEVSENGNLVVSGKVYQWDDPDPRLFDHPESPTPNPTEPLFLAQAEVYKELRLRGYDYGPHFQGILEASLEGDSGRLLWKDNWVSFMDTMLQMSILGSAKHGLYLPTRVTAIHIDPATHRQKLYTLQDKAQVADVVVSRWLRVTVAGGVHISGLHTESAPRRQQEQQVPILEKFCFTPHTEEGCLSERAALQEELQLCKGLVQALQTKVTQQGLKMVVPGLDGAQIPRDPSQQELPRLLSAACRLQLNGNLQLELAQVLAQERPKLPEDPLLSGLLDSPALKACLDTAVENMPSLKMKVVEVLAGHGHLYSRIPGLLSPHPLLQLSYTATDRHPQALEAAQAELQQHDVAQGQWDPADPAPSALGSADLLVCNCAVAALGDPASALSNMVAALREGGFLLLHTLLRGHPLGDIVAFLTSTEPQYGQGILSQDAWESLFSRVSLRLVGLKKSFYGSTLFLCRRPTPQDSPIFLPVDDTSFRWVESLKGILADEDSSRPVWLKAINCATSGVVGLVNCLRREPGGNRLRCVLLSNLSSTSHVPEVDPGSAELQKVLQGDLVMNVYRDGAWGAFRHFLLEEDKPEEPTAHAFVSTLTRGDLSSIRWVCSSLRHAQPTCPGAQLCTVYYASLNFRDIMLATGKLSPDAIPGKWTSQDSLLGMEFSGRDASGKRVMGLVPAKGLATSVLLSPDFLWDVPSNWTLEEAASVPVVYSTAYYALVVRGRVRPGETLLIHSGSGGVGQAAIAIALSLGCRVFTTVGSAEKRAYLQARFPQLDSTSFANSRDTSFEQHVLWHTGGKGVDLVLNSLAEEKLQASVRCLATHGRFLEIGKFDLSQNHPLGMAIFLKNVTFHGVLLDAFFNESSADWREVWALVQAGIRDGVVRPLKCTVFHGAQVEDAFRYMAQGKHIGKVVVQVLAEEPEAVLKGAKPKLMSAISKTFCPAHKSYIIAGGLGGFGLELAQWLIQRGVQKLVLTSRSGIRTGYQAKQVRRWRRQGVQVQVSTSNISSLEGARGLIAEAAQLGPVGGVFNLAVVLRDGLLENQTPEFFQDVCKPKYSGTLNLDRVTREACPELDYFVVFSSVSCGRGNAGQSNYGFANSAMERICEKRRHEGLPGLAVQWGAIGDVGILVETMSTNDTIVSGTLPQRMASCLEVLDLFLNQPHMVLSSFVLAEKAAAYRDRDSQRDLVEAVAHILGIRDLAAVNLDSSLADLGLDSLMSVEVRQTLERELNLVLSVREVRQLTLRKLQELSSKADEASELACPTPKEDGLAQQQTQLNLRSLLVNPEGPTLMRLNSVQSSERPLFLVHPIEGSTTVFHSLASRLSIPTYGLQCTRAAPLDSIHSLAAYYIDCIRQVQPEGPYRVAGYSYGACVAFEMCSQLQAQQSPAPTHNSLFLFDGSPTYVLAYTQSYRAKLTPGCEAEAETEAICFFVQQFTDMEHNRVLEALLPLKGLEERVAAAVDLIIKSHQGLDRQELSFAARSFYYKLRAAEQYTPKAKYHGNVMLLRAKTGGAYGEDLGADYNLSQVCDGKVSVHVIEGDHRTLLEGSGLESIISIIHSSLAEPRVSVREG
T3 sequence (P41145 whole entry): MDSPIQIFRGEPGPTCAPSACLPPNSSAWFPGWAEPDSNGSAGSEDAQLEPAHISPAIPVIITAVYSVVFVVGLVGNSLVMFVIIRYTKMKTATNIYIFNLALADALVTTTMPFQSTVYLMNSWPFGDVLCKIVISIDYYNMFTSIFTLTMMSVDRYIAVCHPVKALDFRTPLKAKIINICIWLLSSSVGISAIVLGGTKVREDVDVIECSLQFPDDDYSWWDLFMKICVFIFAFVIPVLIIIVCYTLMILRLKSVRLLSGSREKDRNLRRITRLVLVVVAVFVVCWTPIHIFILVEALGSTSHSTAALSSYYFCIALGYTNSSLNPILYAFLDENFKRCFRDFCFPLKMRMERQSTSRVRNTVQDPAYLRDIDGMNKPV
T2 sequence (P41143 whole entry): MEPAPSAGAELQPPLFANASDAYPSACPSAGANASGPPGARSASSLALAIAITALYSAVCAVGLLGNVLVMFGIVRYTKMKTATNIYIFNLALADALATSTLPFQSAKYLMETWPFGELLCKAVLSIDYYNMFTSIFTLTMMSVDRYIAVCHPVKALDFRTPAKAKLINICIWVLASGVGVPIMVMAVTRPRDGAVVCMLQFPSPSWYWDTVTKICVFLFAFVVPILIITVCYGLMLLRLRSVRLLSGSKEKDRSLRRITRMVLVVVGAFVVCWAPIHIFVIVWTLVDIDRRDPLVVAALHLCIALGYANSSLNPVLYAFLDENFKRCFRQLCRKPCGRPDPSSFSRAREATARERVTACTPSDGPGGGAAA
Beta-galactosidase, sequence (Q8VNN2 whole entry): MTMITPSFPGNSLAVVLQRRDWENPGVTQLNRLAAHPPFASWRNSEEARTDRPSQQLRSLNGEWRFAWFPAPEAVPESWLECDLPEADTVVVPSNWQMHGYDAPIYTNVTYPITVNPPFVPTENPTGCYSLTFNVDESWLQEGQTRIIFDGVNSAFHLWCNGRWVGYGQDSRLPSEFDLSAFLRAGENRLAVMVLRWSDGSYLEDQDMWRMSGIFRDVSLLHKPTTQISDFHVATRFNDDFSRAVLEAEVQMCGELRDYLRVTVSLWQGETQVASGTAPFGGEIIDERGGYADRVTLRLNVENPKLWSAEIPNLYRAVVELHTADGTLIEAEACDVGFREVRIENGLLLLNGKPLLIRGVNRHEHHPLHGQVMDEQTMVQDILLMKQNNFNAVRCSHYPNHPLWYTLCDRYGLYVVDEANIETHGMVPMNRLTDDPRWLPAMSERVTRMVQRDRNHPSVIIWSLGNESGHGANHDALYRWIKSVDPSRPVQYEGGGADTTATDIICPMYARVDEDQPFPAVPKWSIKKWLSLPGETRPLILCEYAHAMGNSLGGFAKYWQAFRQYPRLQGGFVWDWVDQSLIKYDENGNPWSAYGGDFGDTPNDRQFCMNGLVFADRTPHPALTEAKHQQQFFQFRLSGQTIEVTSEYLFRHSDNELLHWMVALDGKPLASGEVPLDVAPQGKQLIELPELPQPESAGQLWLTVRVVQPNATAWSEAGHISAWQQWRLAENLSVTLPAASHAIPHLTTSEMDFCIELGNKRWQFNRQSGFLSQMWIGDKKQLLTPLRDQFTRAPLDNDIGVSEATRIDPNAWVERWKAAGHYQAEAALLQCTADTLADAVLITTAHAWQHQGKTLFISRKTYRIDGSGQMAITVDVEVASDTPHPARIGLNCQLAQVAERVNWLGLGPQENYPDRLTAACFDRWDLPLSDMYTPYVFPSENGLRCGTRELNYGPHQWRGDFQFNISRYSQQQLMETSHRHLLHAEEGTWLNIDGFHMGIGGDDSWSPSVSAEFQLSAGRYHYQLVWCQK
Mu-type opioid receptor, sequence (P35372 whole entry): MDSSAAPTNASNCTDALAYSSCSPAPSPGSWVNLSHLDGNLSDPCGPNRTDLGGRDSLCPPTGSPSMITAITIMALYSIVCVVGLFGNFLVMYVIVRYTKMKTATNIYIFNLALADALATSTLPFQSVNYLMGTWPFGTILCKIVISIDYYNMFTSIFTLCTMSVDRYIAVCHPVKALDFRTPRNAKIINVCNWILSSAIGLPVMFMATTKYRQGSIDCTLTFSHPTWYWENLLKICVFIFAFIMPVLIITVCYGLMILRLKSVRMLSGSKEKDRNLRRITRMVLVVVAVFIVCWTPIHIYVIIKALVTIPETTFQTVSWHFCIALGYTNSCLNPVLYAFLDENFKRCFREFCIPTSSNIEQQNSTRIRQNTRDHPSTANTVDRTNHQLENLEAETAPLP

For `COc1cccc(CN(C(=O)Cc2c[nH]c3ccccc23)C(C(=O)NC2CCCCC2)c2ccc(C)o2)c1` (stereo not drawn), the EC50 [1] was 19.9 µM (active), the EC50 [2] was 22.3 µM (active) and the AC50 (Escherichia coli) was 44.4 µM (active).
For `CCc1ccc(NC(=O)C(S)=NC2CCCCC2)cc1`, the AC50 (HeLa) was 182 µM (active).
In the case of `Fc1ccccc1CSc1ncnc2c1ncn2C1CCCO1` (stereo not drawn), the IC50 (Vero [3]) is reported as 8.43 µM (active).
In the case of `CC(C)(C)c1nn2cnnc2n(/N=C/c2cccc3ccccc23)c1=O`, the AC50 (Escherichia coli) is reported as 38.5 µM (active).
With `CC(C)Cc1cc(C(=O)Nc2ccc(Br)cc2)no1` the AC50 (HeLa) was 113 µM (active).
In the case of `O=C(NC(Cc1c[nH]c2ccccc12)C(=O)Nc1ccc(F)c([N+](=O)[O-])c1)c1cccs1` (stereo not drawn), the CC50 [4] is reported as 13.1 µM (active), the AC50 (HEK293 [5]) is reported as 1.37 µM (active) and the IC50 (Vero [3]) is reported as 22.4 µM (active). The CC50 (Vero [6]) was 18.5 µM (active), the IC50 (Fatty acid synthase [7]) was 7.53 µM (active) and the IC50 (Fatty acid synthase [8]) was 3.78 µM (active). For the same molecule, the IC50 (cells) was 10.2 µM (active).
In the case of `O=C(c1cccc(COc2cccc3ccccc23)c1)N1CCCC1`, the CC50 [4] is reported as 21.3 µM (active), the IC50 (Vero [3]) is reported as > 25 µM (active) and the CC50 (Vero [6]) is reported as > 25 µM (active). The IC50 (cells) was > 50 µM (active).
For `Cc1ccccc1OCC(=O)Nc1ccc(S(=O)(=O)Nc2onc(C)c2C)cc1`, the AC50 (Escherichia coli) was 39.2 µM (active).
In the case of `COc1cc(OC)c(OC)cc1CCC(C)NCCC(c1ccccc1)c1ccccc1` (stereo not drawn), the CC50 [4] is reported as 14.6 µM (active), the IC50 [9] is reported as 24.4 µM (inactive) and the EC50 (Mu-type opioid receptor) is reported as > 32 µM (inactive). For the same molecule, the EC50 [10] was > 32 µM (inactive), the CC50 [11] was 13.9 µM (active) and the IC50 [12] was 10.9 µM (active). The EC50 (Beta-galactosidase) was > 31.5 µM (inactive), the IC50 [13] was > 32 µM and the EC50 [14] was 6.68 µM (active). The AC50 [15] was 3.99 µM (active), the AC50 [16] was 8.98 µM (active) and the AC50 [17] was 15.8 µM (active). For the same molecule, the EC50 (HEK293 [18]) was > 59.6 µM (inactive) and the EC50 (HEK293 [19]) was > 59.6 µM (inactive).
